Like-named read-outs stand apart in the source and are kept apart here.
How the values were obtained:
[1] = system: cardiomyocytes (Cardiosight-S)
Description: (§1) Next, cardiomyocytes (Cardiosight-S) differentiated from human pluripotent stem cells (hPSCs) from NEXEL were mixed with a hydrogel such as collagen, and then injected using a pipette into the cell inlet connected to the inner cell chamber of the multi-organ-on-a-chip prepared in Example 1, thereby injecting cardiomyocytes into the inner cell chamber.
Next, 1 x 10^5 cultured hepatocytes (HepG2) were injected using a pipette into each cell inlet connected to the two outer cell chambers of the multi-organ-on-a-chip prepared in Example 1, thereby injecting hepatocytes into the two outer cell chambers.
(§2) Next, the hydrogel comprised in the injected cardiomyocyte mixture was cured to fix the cardiomyocytes within the cell chamber. Depending on the type of hydrogel, curing is performed using different curing methods. In the case of collagen, curing was performed via temperature change by placing in an incubator for at least 1 hour, and then cardiomyocytes were continuously cultured in the incubator.
Further, hepatocytes were fixed and cultured using the same method. […]

[2] = system: cardiomyocytes (Cardiosight-S); details: control heart-on-a-chip, 9,000 µM cyclophosphamide, compared to cardiomyocytes not treated with cyclophosphamide
Excerpt: as §1, §2
The culture was performed by supplying a culture medium comprising a mixture of Cardiosight-S Media supplemented with supplement (50X) and Minimum Essential Media Eagle (MEM, high-glucose, gibco) supplemented with 25 mM HEPES (4-(2-hydroxyethyl)-1-piperazineethanesulfonic acid, gibco), 10% (v/v) FBS, P/S (100 Uml-1 penicillin/100 Uml-1 streptomycin, Sigma-Aldrich Co., MO) at a certain ratio. […]

O=P1(N(CCCl)CCCl)NCCCO1 (stereo not drawn) [cyclophosphamide]
effect on the beating rate of cardiomyocytes ([1]; liver-heart-on-a-chip compared to the control heart-on-a-chip, 0, 1,000, 5,000, or 9,000 µM (FIG. 8)): more significant effect | beating rate of the cardiomyocytes increased ([1]; liver-heart-on-a-chip, 9,000 µM cyclophosphamide, compared to cardiomyocytes not treated with cyclophosphamide): 177.9 ± 2.56% | beating rate of the cardiomyocytes increased [2]: 31.76 ± 0.59%
